From patent US20260274895A1, “DE NOVO DESIGNED MEMBRANE-TRAVERSING AND ORALLY BIOAVAILABLE MACROCYCLES” (UNIVERSITY OF WASHINGTON, priority 2022, published 2026)
Each block holds one compound with its values, some of them ahead of it. Where a SMILES comes first, the peptide text is derived from it. [ ]: non-standard residue; d: D form. NMeF = CN[C@@H](Cc1ccccc1)C(=O)O; dNMeF = CN[C@H](Cc1ccccc1)C(=O)O; NMeL = CN[C@@H](CC(C)C)C(=O)O; dNMeL = CN[C@H](CC(C)C)C(=O)O; NMeV = CN[C@H](C(=O)O)C(C)C; NMeA = CN[C@@H](C)C(=O)O; dNMeA = CN[C@H](C)C(=O)O

Conditions: PAMPA, PAMPA_Papp_Avg (apparent permeability)

SMILES: CC(C)C[C@H]1NC(=O)[C@H]2CCCN2C(=O)[C@@H]2CCCN2C(=O)[C@@H](Cc2ccccc2)NC(=O)[C@@H](C(C)C)NC(=O)[C@H](CC(C)C)N(C)C(=O)[C@@H](Cc2ccccc2)NC1=O (single isomer, unassigned) [Design D7.7.p2, Pplf*Lvf]
Papp: 9.06 ×10⁻⁶ cm/s

SMILES: CC[C@H](C)[C@@H]1NC(=O)[C@@H](CC(C)C)NC(=O)[C@H](CC(C)C)N(C)C(=O)[C@H](Cc2ccccc2)NC(=O)CN(C)C(=O)[C@@H]2CCCN2C(=O)[C@H](C(C)C)NC(=O)[C@H](Cc2ccccc2)N(C)C(=O)[C@H]2CCCN2C(=O)[C@H](CC(C)C)NC1=O (single isomer, unassigned) [Design D10.1.p1, lILp*FVP*GF*L]
Papp: 3.92 ×10⁻⁶ cm/s

SMILES: CC(C)C[C@H]1C(=O)N2CCC[C@@H]2C(=O)N[C@@H](Cc2ccccc2)C(=O)N2CCC[C@H]2C(=O)N[C@H](C(C)C)C(=O)N[C@H](Cc2ccccc2)C(=O)N1C (single isomer, unassigned) [Design D6.9.p1, vf*LpFP]
Papp: 5.29 ×10⁻⁶ cm/s

SMILES: CC(C)C[C@H]1NC(=O)[C@H](CC(C)C)N(C)C(=O)[C@@H](Cc2ccccc2)NC(=O)[C@@H](C)N(C)C(=O)[C@@H]2CCCN2C(=O)[C@H](C(C)C)NC(=O)[C@H](CC(C)C)N(C)C(=O)[C@@H](C)NC(=O)[C@@H]2CCCN2C(=O)[C@H]2CCCN2C1=O [Design D10.32, P*af*LlpPa*LV] (cyclo([dA][NMeL]VP[dNMeA][dF][NMeL][dL][dP]P))
Papp: 1.86 ×10⁻⁶ cm/s

SMILES: CC[C@H](C)[C@@H]1NC(=O)[C@@H](CC(C)C)N(C)C(=O)[C@H](CC(C)C)N(C)C(=O)[C@@H](Cc2ccccc2)NC(=O)[C@@H](CC(C)C)N(C)C(=O)[C@H]2CCCN2C(=O)[C@H]2CCCN2C(=O)[C@@H]2CCCN2C(=O)[C@@H](C(C)C)NC(=O)[C@@H]2CCCN2C(=O)[C@H](C)NC1=O [Design D11.11, Ppp*lf*L*lIAPv] (cyclo(AP[dV]P[dP][dP][dNMeL][dF][NMeL][dNMeL]I))
Papp: 2.81 ×10⁻⁶ cm/s

SMILES: CC[C@@H](C)[C@H]1NC(=O)[C@@H]2CCCN2C(=O)[C@@H](Cc2ccccc2)NC(=O)[C@H](CC(C)C)N(C)C(=O)[C@H](C)NC(=O)[C@H]2CCCN2C(=O)[C@@H]2CCCN2C(=O)[C@H](CC(C)C)NC(=O)[C@H](CC(C)C)N(C)C(=O)[C@H](C)N(C)C1=O [Design D10.26, Pi*A*LLPpA*Lf] (cyclo(A[NMeL][dF]P[dI][NMeA][NMeL]LP[dP]))
Papp: 0.808 ×10⁻⁶ cm/s

SMILES: CC[C@H](C)[C@@H]1NC(=O)[C@@H](C(C)C)NC(=O)[C@@H]2CCCN2C(=O)[C@@H](CC(C)C)N(C)C(=O)[C@@H](C(C)C)NC(=O)[C@H](CC(C)C)N(C)C(=O)[C@H]2CCCN2C(=O)[C@@H](C)NC(=O)[C@H](Cc2ccccc2)N(C)C(=O)[C@H]2CCCN2C1=O [Design D10.3., Ip*Fap*Lv*lPv] (cyclo(I[dP][NMeF][dA][dP][NMeL][dV][dNMeL]P[dV]))
Papp: 2.52 ×10⁻⁶ cm/s

SMILES: CC[C@@H](C)[C@H]1NC(=O)[C@H](C(C)C)NC(=O)[C@H]2CCCN2C(=O)[C@@H]2CCCN2C(=O)[C@H](CC(C)C)N(C)C(=O)[C@H](C)N(C)C(=O)[C@@H](CC(C)C)N(C)C(=O)[C@H](C)NC(=O)[C@@H](Cc2ccccc2)NC(=O)[C@@H]2CCCN2C1=O [Design D10.25, fA*l*A*LPpViP] (cyclo(A[dNMeL][NMeA][NMeL]P[dP]V[dI]P[dF]))
Papp: 0.756 ×10⁻⁶ cm/s

SMILES: CC(C)C[C@H]1NC(=O)[C@@H](C)NC(=O)[C@@H](C)NC(=O)[C@H]2CCCN2C(=O)[C@@H]2CCCN2C(=O)[C@H]2CCCN2C(=O)[C@@H](C)NC(=O)[C@@H](Cc2ccccc2)N(C)C(=O)[C@H]2CCCN2C(=O)[C@@H](CC(C)C)NC(=O)[C@@H](CC(C)C)NC1=O [Design D11.25, lp*fapPpaall] (cyclo([dP][dA][dA][dL][dL][dL][dP][dNMeF][dA][dP]P))
Papp: 0.417 ×10⁻⁶ cm/s

SMILES: CC[C@@H](C)[C@H]1NC(=O)[C@H](CC(C)C)N(C)C(=O)[C@H]2CCCN2C(=O)[C@H](CC(C)C)NC(=O)[C@H](Cc2ccccc2)N(C)C(=O)[C@H](CC(C)C)N(C)C(=O)[C@@H](C(C)C)NC(=O)[C@H](C)NC(=O)[C@H]2CCCN2C(=O)[C@@H]2CCCN2C1=O [Design D10.17, *L*FLp*LiPpAv] (cyclo(A[dV][NMeL][NMeF]L[dP][NMeL][dI]P[dP]))
Papp: 2.69 ×10⁻⁶ cm/s

SMILES: CC[C@H](C)[C@@H]1NC(=O)[C@H](Cc2ccccc2)NC(=O)[C@H]2CCCN2C(=O)[C@H]([C@@H](C)CC)NC(=O)[C@H](C(C)C)NC(=O)[C@@H](C)NC(=O)[C@H]2CCCN2C1=O (single isomer, unassigned) [Design D7.8.p2, VIpFIpa]
Papp: 4.92 ×10⁻⁶ cm/s

SMILES: CC(C)[C@@H]1C(=O)N[C@@H](Cc2ccccc2)C(=O)N2CCC[C@H]2C(=O)N(C)[C@H](Cc2ccccc2)C(=O)N[C@H](C)C(=O)N2CCC[C@H]2C(=O)N1C (single isomer, unassigned) [Design D6.8.p1, *faP*vFP]
Papp: 3.47 ×10⁻⁶ cm/s

SMILES: CC[C@H](C)[C@@H]1NC(=O)[C@H](CC(C)C)N(C)C(=O)[C@H]2CCCN2C(=O)[C@H]2CCCN2C(=O)[C@H](Cc2ccccc2)NC(=O)[C@@H](CC(C)C)NC(=O)[C@H]2CCCN2C(=O)[C@@H]2CCCN2C1=O [Design D8.27, Fpp*LIPpl] (cyclo(F[dP][dP][NMeL]IP[dP][dL]))
Papp: 0.315 ×10⁻⁶ cm/s

SMILES: CC[C@@H](C)[C@H]1NC(=O)[C@H](CC(C)C)N(C)C(=O)[C@H]2CCCN2C(=O)[C@H](CC(C)C)NC(=O)[C@@H](Cc2ccccc2)N(C)C(=O)[C@H](CC(C)C)N(C)C(=O)[C@@H](C(C)C)NC(=O)[C@H](C)NC(=O)[C@H]2CCCN2C(=O)[C@@H]2CCCN2C1=O [SEQ ID NO 94, *L*fLp*LiPpAv] (cyclo(A[dV][NMeL][dNMeF]L[dP][NMeL][dI]P[dP]))
Papp: 2.69 ×10⁻⁶ cm/s

Further lines, results first:

Papp: 0.316 ×10⁻⁶ cm/s
SMILES: CC[C@H](C)[C@@H]1NC(=O)[C@@H](C)N(C)C(=O)[C@@H](C)N(C)C(=O)[C@@H]2CCCN2C(=O)[C@H](CC(C)C)NC(=O)[C@H](CC(C)C)NC(=O)[C@@H](CC(C)C)NC(=O)[C@@H]2CCCN2C(=O)[C@H]2CCCN2C1=O [Design D9.11, PlLLP*a*aIp] (cyclo([dL]LLP[dNMeA][dNMeA]I[dP]P))

Papp: 0.628 ×10⁻⁶ cm/s
SMILES: CC[C@H](C)[C@@H]1NC(=O)[C@H](Cc2ccccc2)N(C)C(=O)[C@H]2CCCN2C(=O)[C@@H](CC(C)C)N(C)C(=O)[C@@H](Cc2ccccc2)NC(=O)[C@H](C(C)C)NC(=O)[C@H](CC(C)C)NC(=O)[C@H]2CCCN2C(=O)[C@H](CC(C)C)NC(=O)[C@@H]2CCCN2C1=O [Design D10.50, LVf*lp*FIPLp] (cyclo(IPL[dP]LV[dF][dNMeL][dP][NMeF]))

Papp: 0.236 ×10⁻⁶ cm/s
SMILES: CSCC[C@@H]1NC(=O)[C@@H]2CCCN2C(=O)[C@@H](C(C)C)NC(=O)[C@@H](C)N(C)C(=O)[C@@H](CC(C)C)NC(=O)[C@@H](CC(C)C)NC(=O)[C@@H]2CCCN2C(=O)[C@H]2CCCN2C1=O [Design D8.29, MpPll*avP] (cyclo([dL][dL][dNMeA][dV]PM[dP]P))

Papp: 1.39 ×10⁻⁶ cm/s
SMILES: CC[C@H](C)[C@@H]1NC(=O)[C@H](Cc2ccccc2)N(C)C(=O)[C@H]2CCCN2C(=O)[C@H]([C@@H](C)CC)NC(=O)[C@@H](C)N(C)C(=O)[C@@H](C)NC(=O)[C@@H]2CCCN2C(=O)[C@H]2CCCN2C(=O)[C@H](CC(C)C)NC(=O)[C@@H](CC(C)C)NC(=O)[C@H](CC(C)C)NC(=O)[C@H]2CCCN2C1=O [Design D12.6, p*FIpLILpPa*aI] (cyclo([dA][dNMeA]I[dP][NMeF]I[dP]L[dL]L[dP]P))

Papp: 0.388 ×10⁻⁶ cm/s
SMILES: CC[C@@H](C)[C@H]1NC(=O)[C@@H](CC(C)C)NC(=O)[C@@H](CC(C)C)NC(=O)[C@H]2CCCN2C(=O)[C@H](CC(C)C)N(C)C(=O)[C@@H](C)N(C)C(=O)[C@@H]2CCCN2C(=O)[C@@H]([C@H](C)CC)NC(=O)[C@@H](C(C)C)NC(=O)[C@@H]2CCCN2C1=O [Design D10.46, PviP*a*Lplli] (cyclo([NMeL][dP][dL][dL][dI]P[dV][dI]P[dNMeA]))

Papp: 1.1 ×10⁻⁶ cm/s
SMILES: CC[C@H](C)[C@@H]1NC(=O)[C@H](C(C)C)NC(=O)[C@@H](CC(C)C)N(C)C(=O)[C@H](Cc2ccccc2)NC(=O)[C@@H](CC(C)C)N(C)C(=O)[C@@H](C)N(C)C(=O)[C@H]2CCCN2C(=O)[C@@H]2CCCN2C(=O)[C@H](CC(C)C)NC(=O)[C@@H](C)N(C)C(=O)[C@@H]2CCCN2C1=O [Design D11.20, P*aLPp*a*lF*lVI] (cyclo(F[dNMeL]VIP[dNMeA]LP[dP][dNMeA][dNMeL]))

Papp: 1.43 ×10⁻⁶ cm/s
SMILES: CC[C@H](C)[C@@H]1NC(=O)[C@@H]2CCCN2C(=O)[C@H]2CCCN2C(=O)[C@@H](CC(C)C)NC(=O)[C@@H](CC(C)C)N(C)C(=O)[C@@H](C(C)C)NC(=O)[C@H](C(C)C)NC(=O)[C@H]2CCCN2C(=O)[C@@H]2CCCN2C(=O)[C@H]([C@@H](C)CC)NC(=O)[C@H](C)N(C)C1=O [Design D11.13, PpVv*llpPI*AI] (cyclo(I[NMeA]IP[dP]V[dV][dNMeL][dL][dP]P))

Papp: 0.95 ×10⁻⁶ cm/s
SMILES: CC[C@H](C)[C@@H]1NC(=O)[C@@H](C)N(C)C(=O)[C@H]2CCCN2C(=O)[C@H]2CCCN2C(=O)[C@H](Cc2ccccc2)NC(=O)[C@@H](CC(C)C)NC(=O)[C@@H](CC(C)C)N(C)C(=O)[C@@H]2CCCN2C1=O [Design D8.17, P*llFpp*aI] (cyclo(F[dP][dP][dNMeA]IP[dNMeL][dL]))

Papp: 0.509 ×10⁻⁶ cm/s
SMILES: CC(C)C[C@@H]1C(=O)N2CCC[C@@H]2C(=O)N(C)[C@@H](C(C)C)C(=O)N[C@@H](C(C)C)C(=O)N2CCC[C@H]2C(=O)N2CCC[C@@H]2C(=O)N[C@@H](C)C(=O)N[C@H](C(C)C)C(=O)N(C)[C@@H](CC(C)C)C(=O)N[C@@H](C)C(=O)N1C [Design D10.6, PpAv*LA*lp*VV] (cyclo(A[dNMeL][dP][NMeV]VP[dP]A[dV][NMeL]))

Papp: 1.6 ×10⁻⁶ cm/s
SMILES: CC[C@@H](C)[C@H]1NC(=O)[C@H](CC(C)C)NC(=O)[C@@H](C)N(C)C(=O)[C@@H]2CCCN2C(=O)[C@H](C)NC(=O)[C@@H](CC(C)C)NC(=O)[C@H]2CCCN2C(=O)[C@H](C(C)C)NC(=O)[C@@H](CC(C)C)N(C)C1=O [Design D9.30, plAP*aLi*lV] (cyclo(AP[dNMeA]L[dI][dNMeL]V[dP][dL]))

Papp: 0.716 ×10⁻⁶ cm/s
SMILES: CC(C)C[C@@H]1NC(=O)[C@@H](Cc2ccccc2)N(C)C(=O)[C@H](C(C)C)NC(=O)[C@H](C)NC(=O)[C@@H](C)NC(=O)[C@@H](Cc2ccccc2)N(C)C(=O)[C@@H]2CCCN2C(=O)[C@H](C(C)C)NC(=O)[C@@H]2CCCN2C(=O)[C@@H](C)NC1=O [Design D10.48, aPVP*faAV*fL] (cyclo(AV[dNMeF]L[dA]PVP[dNMeF][dA]))

Papp: 0.946 ×10⁻⁶ cm/s
SMILES: CC(C)C[C@@H]1C(=O)N(C)[C@@H](Cc2ccccc2)C(=O)N[C@@H](C(C)C)C(=O)N2CCC[C@H]2C(=O)NCC(=O)N2CCC[C@H]2C(=O)N(C)[C@H](CC(C)C)C(=O)N[C@@H](C(C)C)C(=O)N[C@H](CC(C)C)C(=O)N1C [SEQ ID NO 69, *lvl*l*FVPGP] (cyclo(GP[dNMeL]V[dL][dNMeL][NMeF]VP))
